PubChem BioAssay (NCI)
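Values below derive from 48-hour exposures of cells grown in 96-well plates, with endpoints linearly interpolated between the two concentrations bracketing the appropriate inhibition level. TGI marks complete inhibition of growth.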

What was measured:
Experiment in all cases: DTP human tumour cell line panel, 48 h
SNB-75 CNS = system: SNB-75 CNS
NCI-H23 lung = system: NCI-H23 lung
OVCAR-4 ovarian = system: OVCAR-4 ovarian
SW-620 colon = system: SW-620 colon
RXF 393 renal = system: RXF 393 renal
LOX IMVI melanoma = system: LOX IMVI melanoma
HCT-116 colon = system: HCT-116 colon
A498 renal = system: A498 renal
CAKI-1 renal = system: CAKI-1 renal
UACC-62 melanoma = system: UACC-62 melanoma
HCT-15 colon = system: HCT-15 colon
T-47D breast = system: T-47D breast
MDA-N = system: MDA-N

| SMILES | TGI (SNB-75 CNS) [µM] | TGI (NCI-H23 lung) [µM] | TGI (OVCAR-4 ovarian) [µM] | TGI (SW-620 colon) [µM] | TGI (RXF 393 renal) [µM] | TGI (LOX IMVI melanoma) [µM] | TGI (HCT-116 colon) [µM] | TGI (A498 renal) [µM] | TGI (CAKI-1 renal) [µM] | TGI (UACC-62 melanoma) [µM] | TGI (HCT-15 colon) [µM] | TGI (T-47D breast) [µM] | TGI (MDA-N) [µM] |
| --- | --- | --- | --- | --- | --- | --- | --- | --- | --- | --- | --- | --- | --- |
| OC12c3ccccc3C1CCCCCCCCCC21OCCO1 (centres undefined) | > 100 | > 100 | > 100 | > 100 | > 100 | > 100 | > 100 | > 100 | > 100 | > 100 | > 100 | – | – |
| COC(=O)c1ccccc1/C=C1\Cc2ccc3c(c2C1=O)CCCC3 | > 100 | > 100 | > 100 | > 100 | – | > 100 | > 100 | > 100 | > 100 | > 100 | > 100 | > 100 | > 100 |
| O=C1CC(=O)NC(=NN2C(=O)CSC2C(=O)c2ccco2)N1 (centres undefined) | > 100 | > 100 | > 100 | > 100 | > 100 | – | > 100 | > 100 | > 100 | > 100 | > 100 | > 100 | > 100 |
| COC(=O)C1CCC(=O)N1C(c1cc(OC)c(OC)c(OC)c1)c1cccc2ccccc12 (centres undefined) | > 100 | – | – | > 100 | – | > 100 | > 100 | > 100 | – | > 100 | > 100 | > 100 | > 100 |
| CCn1c2c(c3ccccc31)[C@@H](c1ccc(Cl)cc1)CC1C(=O)N(c3ccccc3)C(=O)C21 (some centres undefined) | > 100 | > 100 | > 100 | > 100 | > 100 | > 100 | > 100 | > 100 | > 100 | > 100 | > 100 | – | – |
| C=CCOC(=O)N1c2ccc(O)cc2[C@@]23O[C@@]24[C@@H]1C#C/C=C\C#C[C@]3(O)C(OC)(OC)C[C@@H]4C | 45.9 | 93 | 47.2 | > 100 | > 100 | – | > 100 | 67.6 | > 100 | > 100 | > 100 | > 100 | 77.5 |
| COC(=O)C(Cc1c[nH]c2ccccc12)NP(=O)(O)OCC1OC(n2cc(Br)c(=O)[nH]c2=O)CC1O (centres undefined) | > 100 | > 100 | > 100 | > 100 | > 100 | > 100 | > 100 | > 100 | – | > 100 | > 100 | > 100 | > 100 |
| COc1cc(C2C3=C(CCCC3=O)N(c3ccc(C)cc3)C3=C2C(=O)CCC3)c([N+](=O)[O-])cc1OC | > 100 | > 100 | > 100 | > 100 | > 100 | > 100 | – | > 100 | > 100 | > 100 | > 100 | – | – |
| Nc1ccc2ccc(N3CCNCC3)nc2n1 | > 100 | > 100 | > 100 | > 100 | – | > 100 | > 100 | – | > 100 | > 100 | > 100 | – | > 100 |
| N#Cc1cc(Sc2ccc(N)c(C#N)c2)ccc1N | – | – | 98.8 | > 100 | > 100 | 51.7 | 34.4 | > 100 | – | > 100 | 38.9 | > 100 | 24.2 |
